Source: patent US20200199689A1, “Method for Predicting Effectiveness of Angiogenesis Inhibitor” (Eisai R&D Management Co., Ltd., priority 2011, published 2020)

System: human melanoma cell line grafted mouse models
Test: Anti-tumor effect of angiogenesis inhibitor on mouse model grafted with melanoma cell line
Format: in vivo, nude mouse
Details: 100 mg/kg/day orally, 7th day after initiation of administration
Procedure: The human melanoma cell lines used in Example 1 were respectively cultured in the mediums shown in the column of “Culture medium” (containing 10% FBS) of Table 6 until about 80% confluency was obtained (in an incubator under 5% carbon dioxide gas). After culturing, cells were collected by trypsin-EDTA treatment in accordance with a conventional method. The cells were suspended with a phosphate buffer or a matrigel solution (mixture of phosphate buffer and matrigel in a common ratio of 1:1) to prepare suspension solution of 1×10^8 cells/mL or 5×10^7 cells/mL. The cell suspension (0.1 mL) was subcutaneously grafted to the side of the body of each nude mouse. In this manner, human melanoma cell line grafted mouse models were prepared.
After grafting, from the time point when a tumor volume reached about 200 mm^3, a mesylate of 4-(3-chloro-4-(cyclopropylaminocarbonyl)aminophenoxy)-7-methoxy-6-quinolinecarboxamide (hereinafter referred to as E7080) (100 mg/kg/day) was orally administered. The major axis and minor axis of the tumor were measured everyday by Digimatic Caliper (Mitsutoyo). The tumor volume and specific tumor volume were calculated in accordance with the following formula and thereby the anti-tumor effect (ΔT/C) of an angiogenesis inhibitor on the mouse model was measured.
Tumor volume (TV)=tumor longest diameter (mm)×tumor short diameter^2 (mm^2)/2
Anti-tumor effect (ΔT/C)=(TV of medicinal drug administered group−TV before initiation of administration)/(TV of control group−TV before initiation of administration)×100
In FIG. 1, the same cell lines used in Example 1 were used.

In the case of `COc1cc2nccc(Oc3ccc(NC(=O)NC4CC4)c(Cl)c3)c2cc1C(N)=O` [E7080, 4-(3-Chloro-4-(cyclopropylaminocarbonyl)aminophenoxy)-7-methoxy-6-quinolinecarboxamide], the “Anti-tumor effect (ΔT/C)” value (melanoma cells where BRAF has a mutation and PTEN has no mutation) is reported as 45%, the “Anti-tumor effect (ΔT/C)” value (melanoma cells where both of BRAF and PTEN are wild type) is reported as 16% and the “Anti-tumor effect (ΔT/C)” value (melanoma cells where both of BRAF and PTEN have a mutation or loss of expression) is reported as 23%.
